# Experimental data published in PubChem BioAssay (NCI).
#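 In this assay, cells in 96-well plates receive the compound at five concentrations for 48 hours. Endpoints are linearly interpolated between the surrounding concentrations. GI50 is the concentration that inhibits growth by half. At the TGI there is no net growth.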
# Assays:
# Assay in all cases: NCI anticancer screen, dose series, 48 h
# [1] = tested on: OVCAR-5 ovarian
# [2] = tested on: CCRF-CEM leukemia
# [3] = tested on: EKVX NSCLC
# [4] = tested on: U251 CNS
# [5] = tested on: ACHN renal
# [6] = tested on: OVCAR-4 ovarian
# [7] = tested on: MDA-MB-435
# [8] = tested on: NCI-H23 lung
# [9] = tested on: UACC-62 melanoma
# [10] = tested on: A498 renal
# [11] = tested on: OVCAR-8 ovarian
# [12] = tested on: SK-MEL-5 melanoma
# [13] = tested on: COLO 205 colon
# [14] = tested on: SK-OV-3 ovarian
# [15] = tested on: RPMI-8226 leukemia
# [16] = tested on: SF-295 CNS
# [17] = tested on: 786-0 renal
# [18] = tested on: K-562 leukemia
# [19] = tested on: SNB-19 CNS
# [20] = tested on: SNB-75 CNS
# [21] = tested on: CAKI-1 renal
# [22] = tested on: HOP-62 NSCLC
# [23] = tested on: MALME-3M melanoma
# [24] = tested on: NCI-H460 lung
# [25] = tested on: BT-549 breast
# [26] = tested on: HCT-15 colon
# [27] = tested on: OVCAR-3 ovarian
# [28] = tested on: HL-60(TB) leukemia
# [29] = tested on: HCC-2998 colon
# [30] = tested on: M14 melanoma
# [31] = tested on: SR leukemia
# [32] = tested on: PC-3 prostate
# [33] = tested on: IGROV1 ovarian
# [34] = tested on: HT29 colon
# [35] = tested on: UO-31 renal
# [36] = tested on: SF-539 CNS
# [37] = tested on: RXF 393 renal
# [38] = tested on: HCT-116 colon
# [39] = tested on: UACC-257 melanoma
# [40] = tested on: SF-268 CNS
# [41] = tested on: KM12 colon
# [42] = tested on: T-47D breast
# [43] = tested on: MCF7 breast
# [44] = tested on: SK-MEL-2 melanoma
# [45] = tested on: TK-10 renal
# [46] = tested on: HOP-92 NSCLC
# [47] = tested on: NCI-H522 lung
# [48] = tested on: SK-MEL-28 melanoma
# [49] = tested on: LOX IMVI melanoma
# [50] = tested on: SN12C renal
# [51] = tested on: MOLT-4 leukemia
# [52] = tested on: DU-145 prostate
# [53] = tested on: SW-620 colon
# [54] = tested on: A549 NSCLC
# [55] = tested on: NCI/ADR-RES ovarian
# [56] = tested on: MDA-MB-231 breast
# [57] = tested on: NCI-H226 lung
# [58] = tested on: HS 578T breast
smiles,measurement,setting,value
COc1cc2c3c(n(CCCN)c(=O)c2cc1OC)-c1ccc(N(C)C)cc1C3=O,GI50,[1],17 µM
same,TGI,[1],31.4 µM
same,GI50,[2],1.98 µM
same,TGI,[2],5.16 µM
same,GI50,[3],16.7 µM
same,TGI,[3],32 µM
same,GI50,[4],16.5 µM
same,TGI,[4],31.1 µM
same,GI50,[5],17.4 µM
same,TGI,[5],31.5 µM
same,GI50,[6],17.5 µM
same,TGI,[6],33.8 µM
same,GI50,[7],22.6 µM
same,TGI,[7],46.3 µM
same,GI50,[8],16.6 µM
same,TGI,[8],30.5 µM
same,GI50,[9],21.6 µM
same,TGI,[9],42.2 µM
same,GI50,[10],21 µM
same,TGI,[10],37.2 µM
same,GI50,[11],7.22 µM
same,TGI,[11],33.7 µM
same,GI50,[12],6.4 µM
same,TGI,[12],13.7 µM
same,GI50,[13],17.4 µM
same,TGI,[13],35.5 µM
same,GI50,[14],21 µM
same,TGI,[14],42.7 µM
same,GI50,[15],2 µM
same,TGI,[15],4.68 µM
same,GI50,[16],17.6 µM
same,TGI,[16],37.9 µM
same,GI50,[17],5.29 µM
same,TGI,[17],11.8 µM
same,GI50,[18],4.09 µM
same,TGI,[18],17.4 µM
same,GI50,[19],16.9 µM
same,TGI,[19],33.7 µM
same,GI50,[20],22.5 µM
same,TGI,[20],46 µM
same,GI50,[21],22.7 µM
same,TGI,[21],47.5 µM
same,GI50,[22],16.8 µM
same,TGI,[22],31.9 µM
same,GI50,[23],9.33 µM
same,TGI,[23],29.9 µM
same,GI50,[24],4.45 µM
same,TGI,[24],26.1 µM
same,GI50,[25],14.5 µM
same,TGI,[25],28.8 µM
same,GI50,[26],13.9 µM
same,TGI,[26],27.1 µM
same,GI50,[27],20.4 µM
same,TGI,[27],42.2 µM
same,GI50,[28],21.6 µM
same,TGI,[28],47.7 µM
same,GI50,[29],3.29 µM
same,TGI,[29],7.68 µM
same,GI50,[30],16.4 µM
same,TGI,[30],32.6 µM
same,GI50,[31],18.7 µM
same,TGI,[31],74.5 µM
same,GI50,[32],1.69 µM
same,TGI,[32],3.14 µM
same,GI50,[33],14.8 µM
same,TGI,[33],47 µM
same,GI50,[34],1.54 µM
same,TGI,[34],2.94 µM
same,GI50,[35],16.9 µM
same,TGI,[35],36.1 µM
same,GI50,[36],1.92 µM
same,TGI,[36],3.66 µM
same,GI50,[37],6.53 µM
same,TGI,[37],14.8 µM
same,GI50,[38],2.42 µM
same,TGI,[38],6.07 µM
same,GI50,[39],23.5 µM
same,TGI,[39],48.3 µM
same,GI50,[40],16.1 µM
same,TGI,[40],46.1 µM
same,GI50,[41],2.34 µM
same,TGI,[41],4.85 µM
same,GI50,[42],20 µM
same,TGI,[42],41 µM
same,GI50,[43],14.8 µM
same,TGI,[43],36.7 µM
same,GI50,[44],19.6 µM
same,TGI,[44],38.1 µM
same,GI50,[45],18.5 µM
same,TGI,[45],37.2 µM
same,GI50,[46],6.8 µM
same,TGI,[46],22.8 µM
same,GI50,[47],17.3 µM
same,TGI,[47],38.1 µM
same,GI50,[48],12.3 µM
same,TGI,[48],27.6 µM
same,GI50,[49],2.05 µM
same,TGI,[49],4.45 µM
same,GI50,[50],16.9 µM
same,TGI,[50],32 µM
same,GI50,[51],7.01 µM
same,TGI,[51],19.5 µM
same,GI50,[52],2.38 µM
same,TGI,[52],6.6 µM
same,GI50,[53],1.95 µM
same,TGI,[53],3.76 µM
same,GI50,[54],18 µM
same,TGI,[54],52 µM
same,GI50,[55],13.9 µM
same,TGI,[55],43.2 µM
same,GI50,[56],11.9 µM
same,TGI,[56],25.5 µM
same,GI50,[57],23.9 µM
same,TGI,[57],49.5 µM
same,GI50,[58],27.9 µM
same,TGI,[58],61.5 µM
C=C(C)[C@@H]1CC[C@]2(C(N)=O)CC[C@]3(C)[C@H](CC[C@@H]4[C@@]5(C)C/C(=C/c6cccnc6)C(=O)C(C)(C)[C@@H]5CC[C@]43C)[C@@H]12,GI50,[1],12.7 µM
same,TGI,[1],39.7 µM
same,GI50,[2],4.48 µM
same,TGI,[2],> 100 µM
same,GI50,[3],4.99 µM
same,TGI,[3],67 µM
same,GI50,[4],7.3 µM
same,TGI,[4],47.2 µM
same,GI50,[5],4.96 µM
same,TGI,[5],> 100 µM
same,GI50,[6],4.28 µM
same,TGI,[6],> 100 µM
same,GI50,[7],5.52 µM
same,TGI,[7],> 100 µM
same,GI50,[8],14.7 µM
same,TGI,[8],> 100 µM
same,GI50,[9],5.97 µM
same,TGI,[9],29.9 µM
same,GI50,[10],23.8 µM
same,TGI,[10],> 100 µM
same,GI50,[11],9.96 µM
same,TGI,[11],> 100 µM
same,GI50,[12],5.42 µM
same,TGI,[12],17.6 µM
same,GI50,[13],7.14 µM
same,TGI,[13],27.6 µM
same,GI50,[14],10.6 µM
same,TGI,[14],> 100 µM
same,GI50,[15],2.44 µM
same,TGI,[15],22.1 µM
same,GI50,[16],3.84 µM
same,TGI,[16],42.3 µM
same,GI50,[17],14.7 µM
same,TGI,[17],> 100 µM
same,GI50,[18],3.75 µM
same,TGI,[18],> 100 µM
same,GI50,[19],9.22 µM
same,TGI,[19],> 100 µM
same,GI50,[20],8.63 µM
same,TGI,[20],> 100 µM
same,GI50,[21],2.56 µM
same,TGI,[21],21.2 µM
same,GI50,[22],12.4 µM
same,TGI,[22],> 100 µM
same,GI50,[23],7.54 µM
same,TGI,[23],41.7 µM
same,GI50,[24],8.32 µM
same,TGI,[24],25.1 µM
same,GI50,[25],8.89 µM
same,TGI,[25],> 100 µM
same,GI50,[26],4.4 µM
same,TGI,[26],> 100 µM
same,GI50,[27],5.91 µM
same,TGI,[27],43.8 µM
same,GI50,[28],3.15 µM
same,TGI,[28],13.9 µM
same,GI50,[29],9.04 µM
same,TGI,[29],> 100 µM
same,GI50,[30],8.05 µM
same,TGI,[30],> 100 µM
same,GI50,[31],5.1 µM
same,TGI,[31],> 100 µM
same,GI50,[32],2.36 µM
same,TGI,[32],25.6 µM
same,GI50,[33],14 µM
same,TGI,[33],> 100 µM
same,GI50,[34],6.03 µM
same,TGI,[34],52.7 µM
same,GI50,[35],3.08 µM
same,TGI,[35],> 100 µM
same,GI50,[36],10.9 µM
same,TGI,[36],33.3 µM
same,GI50,[37],3.41 µM
same,TGI,[37],16.4 µM
same,GI50,[38],3.96 µM
same,TGI,[38],66.4 µM
same,GI50,[39],7.2 µM
same,TGI,[39],> 100 µM
same,GI50,[40],7.52 µM
same,TGI,[40],> 100 µM
same,GI50,[41],4.67 µM
same,TGI,[41],64.1 µM
same,GI50,[42],3.99 µM
same,TGI,[42],> 100 µM
same,GI50,[43],3.49 µM
same,TGI,[43],> 100 µM
same,GI50,[44],12.1 µM
same,TGI,[44],39.8 µM
same,GI50,[45],24.7 µM
same,TGI,[45],> 100 µM
same,GI50,[46],3.21 µM
same,TGI,[46],> 100 µM
same,GI50,[47],6.77 µM
same,TGI,[47],63 µM
same,GI50,[48],8.81 µM
same,TGI,[48],33.2 µM
same,GI50,[49],5.89 µM
same,TGI,[49],18.6 µM
same,GI50,[50],5.88 µM
same,TGI,[50],> 100 µM
same,GI50,[51],3.14 µM
same,TGI,[51],> 100 µM
same,GI50,[52],8.36 µM
same,TGI,[52],> 100 µM
same,GI50,[53],8.82 µM
same,TGI,[53],> 100 µM
same,GI50,[54],3.84 µM
same,TGI,[54],> 100 µM
same,GI50,[55],7.13 µM
same,TGI,[55],> 100 µM
same,GI50,[56],15.2 µM
same,TGI,[56],> 100 µM
same,GI50,[57],6.9 µM
same,TGI,[57],60.7 µM
same,GI50,[58],17.9 µM
same,TGI,[58],> 100 µM
